The values below come from patent publication US20240158384A1, “CB2 RECEPTOR AGONISTS” (The Board of Trustees of the Leland Stanford Junior …, priority 2020, published 2024).

Structures are written as SMILES. Values after ≈ are worked out from the molar mass of the structure shown. Bounds are passed on as bounds.

One data set deals with T1, human CB1R (Homo sapiens, UniProt P21554).
T1 construct: host or cells: CHO cells
The data set is described as follows: cAMP Hunter eXpress GPCR assay, human CB1: inhibition of forskolin-stimulated cAMP in CHO cells. The data set is classed as cell-based. As to the method:
Briefly, cAMP Hunter eXpress Cells were seeded 18-24 h prior to the in a 96-well tissue culture treated assay plate and incubated in 5% CO2 at 37° C. in a humidified incubator. After removal of cell media, agonist compound and forskolin prepared in cell assay buffer was added and incubated at 37° C. The CB1 cAMP assay was stimulated with 20 μM final concentration of forskolin with 40 minutes incubation time. The CB2 cAMP assay was stimulated with 25 μM final concentration of forskolin with 35 minutes incubation time. The assay was stopped by incubation with antibody and working solution for 1 h at room temperature. After over 3 h incubation at room temperature in the dark with enzyme acceptor solution, chemiluminescence was measured on a CLARIOstar plate reader (BMG LABTECH Inc., Cary, NC, USA).

The target of another data set is human CB2R (Homo sapiens, UniProt P34972). The data set is described as follows: PathHunter β-Arrestin assay, beta-arrestin recruitment. The data set is classed as cell-based. As to the method:
The assay was performed using the PathHunter β-Arrestin human CB2 cell line (catalog no. 93-0706C2) and using the PathHunter® β-Arrestin Assay for GPCR Cell Lines (source: DiscoveRx, Fremont, CA, USA), according to the manufacturer's protocol (https://www.discoverx.com/tools-resources/document-resource-library/documents/user-manual-pathhunter-% CE % B2-arrestin-assay-for-gpcr-c). Briefly, cells were seeded at a density of 10,000 cells per well in a 96-well plate and incubated overnight (16-18 h) in a humidified atmosphere at 37° C. and 5% C02. Agonist prepared in PBS was added and the assay plate incubated for 3 h in a humidified atmosphere at 37° C. and 5% C02. Working detection solution was added and the plate was incubated for 1 h in the dark at room temperature. Chemiluminescence was measured on an CLARIOstar plate reader (BMG LABTECH Inc., Cary, NC, USA).
(In general: Recruitment of arrestin is a read-out of receptor activation apart from second messengers.)

A further data set is described as follows: Aqueous solubility. The data set is classed as physicochemical. To be noted: aqueous medium (not further specified). As to the method:
(§1) Detailed characterization data was collected for Compound 22. Primary assays were carried out according to Examples 2 and 3, while other assays were carried out according to standard methods.

For another data set, the target named is T2, GPR119 (Homo sapiens, UniProt Q8TDV5).
T2 sequence (Q8TDV5 1-335): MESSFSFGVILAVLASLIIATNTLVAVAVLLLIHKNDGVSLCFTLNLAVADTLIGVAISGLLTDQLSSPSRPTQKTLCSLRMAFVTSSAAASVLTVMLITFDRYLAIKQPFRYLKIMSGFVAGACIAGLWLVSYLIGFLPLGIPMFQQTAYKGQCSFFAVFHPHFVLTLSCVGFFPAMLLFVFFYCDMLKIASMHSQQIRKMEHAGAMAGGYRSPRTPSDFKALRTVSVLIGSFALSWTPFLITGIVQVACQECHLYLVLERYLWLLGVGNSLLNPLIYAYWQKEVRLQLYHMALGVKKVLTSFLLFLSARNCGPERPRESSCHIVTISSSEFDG
The data set is described as follows: Off-target activity GPR119 (agonist, antagonist, PAM modes). The data set is classed as cell-based. As to the method: as §1

A short description of data set [1]: Plasma and brain pharmacokinetics in mice. The data set is classed as in vivo. As to conditions: male, C57BL/6, mouse, 10 mg/kg. As to the method:
Plasma and brain concentrations of Compounds 11, 22, 16, and 24 were determined by LC-MS/MS after IV and PO dosing in male C57BL/6 mice at 10 mg/kg. Data are shown in FIGS. 10A-10D for Compounds 11, 22, 16, and 24, respectively.
as §1

A further data set concerns Caco-2. The data set can be described thus: In vitro permeability Caco-2. Type of data set: in vitro ADME. As to the method:
as §1
(Caco-2 cells form a polarised layer with tight junctions and transporters.)

A short description of a further data set: Plasma protein binding. Type of data set: in vitro ADME. As to the method: as §1
A further data set in a line: Brain protein binding. The data set is classed as in vitro ADME. As to conditions: brain tissue. As to the method:
as §1

A short description of another data set: Microsomal stability. Type of data set: in vitro ADME. As to the method: as §1
Data set [2] can be described thus: Mouse hepatocytes metabolic stability. The data set is classed as in vitro ADME. As to the method: as §1
Another data set deals with Neurons/Microglia. The data set can be described thus: Cytotoxicity (Neurons/Microglia). Type of data set: cell-based. As to the method: as §1
A further data set has as its target hERG (Homo sapiens, UniProt Q12809). The data set is described as follows: hERG activity. As to the method:
as §1

Data set [3] has as its system extracellular dopamine (DA) in nucleus accumbens. The data set is described as follows: Microdialysis of nucleus accumbens, extracellular dopamine after AMPH. The data set is classed as in vivo, mouse. As to conditions: 10 mg/kg i.p., 40 min before AMPH 2 mg/kg i.p.; n=1/group. As to the method:
(§2) For this study, a probe was implanted into the nucleus accumbens (NAc) (FIG. 11A). Following baseline measurements, mice were dosed with vehicle or Compound 22 (10 mg/kg, i.p) followed 40 min later by a single dose of AMPH (2 mg/kg, i.p.). Samples were collected for 2 hr post-dosing. Extracellular dopamine (DA) levels in the dialysate were quantified by HPLC with electrochemical detection (FIG. 11B). […] Compound 22 modulates both spontaneous and reward-related DA release. To confirm these findings in parallel experiments, GPCR-activation based-DA (GRAB-DA) was used, which is a human D2R-GFP chimera sensor that produces fluorescence changes reliably and with sub-second kinetics in response to extracellular DA concentration changes in behaving animals (Sun et al. Cell 2018; 174(2):481-96.e19). Mice were injected with an adeno-associated virus (AAV) carrying GRAB-DA into the (NAc) (FIG. 11C) and allowed to recover for −2 weeks before fiber photometry experiments were performed. In the first pilot experiment, baseline DA release were recorded for 5 min before mice (n=3) were injected with either Compound 22 or vehicle and then recording was continued for 45 min. The rate of spontaneous DA transients was compared in the pre-injection (0-5 min) vs post-injection (35-50 min) periods; there was a significant time x drug interaction: F(1,4)=11.91, P=0.026.

Data set [4] relates to spontaneous DA transients in NAc. The data set is described as follows: GRAB-DA fiber photometry, spontaneous DA transients. Type of data set: in vivo, mouse. As to the method: as §2

Chain of human CB2R (P34972 whole entry): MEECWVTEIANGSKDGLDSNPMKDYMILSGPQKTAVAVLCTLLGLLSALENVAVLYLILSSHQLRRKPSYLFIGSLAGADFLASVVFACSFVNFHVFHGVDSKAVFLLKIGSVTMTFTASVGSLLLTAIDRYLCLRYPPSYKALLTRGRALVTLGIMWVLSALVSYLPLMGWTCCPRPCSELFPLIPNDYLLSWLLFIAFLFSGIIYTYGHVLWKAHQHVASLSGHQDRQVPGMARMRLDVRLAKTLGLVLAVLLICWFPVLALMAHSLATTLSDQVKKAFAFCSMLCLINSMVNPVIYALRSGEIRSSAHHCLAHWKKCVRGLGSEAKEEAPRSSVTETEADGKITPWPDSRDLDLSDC
T1 sequence (P21554 whole entry): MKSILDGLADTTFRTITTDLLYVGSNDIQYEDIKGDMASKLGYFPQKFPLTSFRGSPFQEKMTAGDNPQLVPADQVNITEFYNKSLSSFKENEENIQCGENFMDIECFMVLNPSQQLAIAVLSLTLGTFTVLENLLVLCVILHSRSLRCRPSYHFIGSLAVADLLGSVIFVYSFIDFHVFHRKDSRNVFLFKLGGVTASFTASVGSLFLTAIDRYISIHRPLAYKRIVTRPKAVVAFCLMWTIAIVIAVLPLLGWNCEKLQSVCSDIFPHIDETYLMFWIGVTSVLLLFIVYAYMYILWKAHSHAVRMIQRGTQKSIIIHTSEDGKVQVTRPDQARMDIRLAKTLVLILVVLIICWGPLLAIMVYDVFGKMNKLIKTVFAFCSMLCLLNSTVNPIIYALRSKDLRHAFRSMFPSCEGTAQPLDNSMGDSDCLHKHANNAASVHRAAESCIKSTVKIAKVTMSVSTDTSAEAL
Chain of hERG (Q12809 whole entry): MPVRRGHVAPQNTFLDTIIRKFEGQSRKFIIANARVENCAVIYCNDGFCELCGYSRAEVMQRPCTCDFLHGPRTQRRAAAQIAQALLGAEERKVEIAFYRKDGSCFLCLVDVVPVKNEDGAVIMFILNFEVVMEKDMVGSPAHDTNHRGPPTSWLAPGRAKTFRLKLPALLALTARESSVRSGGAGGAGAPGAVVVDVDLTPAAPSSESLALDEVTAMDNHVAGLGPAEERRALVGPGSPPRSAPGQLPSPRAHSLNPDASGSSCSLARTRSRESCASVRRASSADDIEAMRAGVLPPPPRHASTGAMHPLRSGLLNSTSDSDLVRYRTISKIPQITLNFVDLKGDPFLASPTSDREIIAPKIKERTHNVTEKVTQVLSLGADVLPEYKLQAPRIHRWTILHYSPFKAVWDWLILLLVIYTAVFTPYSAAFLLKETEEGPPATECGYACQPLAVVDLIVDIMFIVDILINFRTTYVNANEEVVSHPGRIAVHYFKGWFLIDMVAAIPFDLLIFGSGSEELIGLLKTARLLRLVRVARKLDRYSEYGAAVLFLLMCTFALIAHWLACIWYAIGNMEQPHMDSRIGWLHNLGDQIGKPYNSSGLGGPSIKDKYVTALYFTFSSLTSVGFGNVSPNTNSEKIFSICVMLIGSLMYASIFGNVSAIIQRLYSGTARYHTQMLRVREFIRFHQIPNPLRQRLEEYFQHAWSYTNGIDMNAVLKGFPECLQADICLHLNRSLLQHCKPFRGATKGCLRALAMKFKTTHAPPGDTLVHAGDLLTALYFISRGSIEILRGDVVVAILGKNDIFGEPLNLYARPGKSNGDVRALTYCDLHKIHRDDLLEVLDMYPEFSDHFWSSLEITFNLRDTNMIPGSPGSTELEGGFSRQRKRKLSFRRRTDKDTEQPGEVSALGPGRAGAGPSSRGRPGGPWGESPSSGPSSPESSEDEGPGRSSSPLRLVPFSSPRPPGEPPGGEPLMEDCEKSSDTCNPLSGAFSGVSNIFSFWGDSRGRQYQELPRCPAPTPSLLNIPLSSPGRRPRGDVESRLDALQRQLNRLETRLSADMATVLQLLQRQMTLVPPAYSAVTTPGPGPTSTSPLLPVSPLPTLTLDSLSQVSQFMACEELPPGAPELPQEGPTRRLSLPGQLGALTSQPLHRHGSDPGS

As to `CC(C)(CO)c1cc(NC(=O)N2CCCN2c2ccc(C(F)(F)F)cc2)no1` [Compound 22, N-(5-(1-hydroxy-2-methylpropan-2-yl)isoxazol-3-yl)-2-(4-(trifluoromethyl)phenyl)pyrazolidine-1-carboxamide], the EC50 (commonly the concentration at which the effect is half-maximal) was above 10 µM on human CB1R, 0.578 µM at human CB2R and above 10 µM on GPR119. In addition, the “Activation of beta-arrestin pathway (in words)” value on human CB2R (hCB2, CP-55940 as control) was “weak beta-arrestin activity”. Further, the concentration in solution in the data set “Aqueous solubility” (solubility) was 17.4 µg/mL (≈ 43.6 µM). Besides, the half-maximal inhibitory concentration (IC50) on GPR119 and on hERG was above 10 µM throughout. Further, the Kp at 24 h in data set [1] (in vivo, Via oral administration, 3 mice, at 24 h, read-out: Brain to plasma ratio) came to 0.97. Also, the bioavailability (as a rule, the share of a dose that reaches the circulation, judged against a reference dose that is usually intravenous) in data set [1] (plasma, Oral bioavailability) came out at 100%. In addition, in the data set with Caco-2, the In vitro permeability entry was “High”. Also, the fraction unbound (in general, the share of the substance not bound to proteins or other matrix) in the data set “Plasma protein binding” was 0.0631; in “Brain protein binding”, 0.0198. For the same compound, the “Microsomal stability, clearance class” value in “Microsomal stability” is “Low clearance”. The half-life in “Microsomal stability” (microsomes, read-out: Microsomal stability t ½) is 2 h; in [2] (read-out: Mouse hepatocytes metabolic stability t ½) it was above 2 h. For the same compound, the “Mouse hepatocytes metabolic stability, clearance class” value in data set [2] is “Medium clearance”. The “Cytotoxicity (Neurons/Microglia)” value in the data set on Neurons/Microglia is given as “not toxic”. For the same compound, the “Extracellular DA release after AMPH dosing” value in data set [3] is reported as “reduced extracellular DA release after AMPH dosing”. Also, the “Shape of the spontaneous DA transients” value in [4] (before and after injection) is given as “widening the curve”. For the same compound, the “Rate of spontaneous DA transients” value in [4] (pre-injection (0-5 min) vs post-injection (35-50 min), n=3) is on record as “reduced the rate of spontaneous transients”.
